Test results: PubChem BioAssay AID2060884 (Molecular Pharmacology Branch, DTP, NCI, 2025)
“And” between values parts separate entries of the source, which are not always exact repeats. Equal values may be shown once. Blank lines part the entries; values can stand above or below the compound they belong to.

System: NCI-H929 complex spheroids, viability % test/control
Experiment: Anticancer human tumor NCI-H929 cell line growth inhibition [RAS];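 also: compound exposure lasted seven days before viability was read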;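 as to viability, T/C: 100% = DMSO vehicle control viability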
Details: for viability, T/C: stronger effect = lower value
In short: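 Tumour cells grown as complex spheroids with HUVEC endothelial cells and mesenchymal stem cells, treated with RAS pathway inhibitor combinations. Each agent spans half-log steps from near clinical Cmax, or 10 microM where Cmax is unknown.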

[1] = curve of first compound, second compound 0.000949 µM
[2] = curve of first compound, second compound 0.003 µM
[3] = curve of first compound, second compound 0.00949 µM
[4] = curve of first compound, second compound 0.03 µM
[5] = curve of first compound, second compound 0.0949 µM
[6] = curve of first compound, second compound 0.3 µM
[7] = second compound 0.000949 µM, first compound 0.0316 µM
[8] = second compound 0.000949 µM, first compound 0.1 µM
[9] = second compound 0.000949 µM, first compound 0.316 µM
[10] = second compound 0.000949 µM, first compound 1 µM
[11] = second compound 0.000949 µM, first compound 3.16 µM
[12] = second compound 0.000949 µM, first compound 10 µM
[13] = second compound 0.003 µM, first compound 0.0316 µM
[14] = second compound 0.003 µM, first compound 0.1 µM
[15] = second compound 0.003 µM, first compound 0.316 µM
[16] = second compound 0.003 µM, first compound 1 µM
[17] = second compound 0.003 µM, first compound 3.16 µM
[18] = second compound 0.003 µM, first compound 10 µM
[19] = second compound 0.00949 µM, first compound 0.0316 µM
[20] = second compound 0.00949 µM, first compound 0.1 µM
[21] = second compound 0.00949 µM, first compound 0.316 µM
[22] = second compound 0.00949 µM, first compound 1 µM
[23] = second compound 0.00949 µM, first compound 3.16 µM
[24] = second compound 0.00949 µM, first compound 10 µM
[25] = second compound 0.03 µM, first compound 0.0316 µM
[26] = second compound 0.03 µM, first compound 0.1 µM
[27] = second compound 0.03 µM, first compound 0.316 µM
[28] = second compound 0.03 µM, first compound 1 µM
[29] = second compound 0.03 µM, first compound 3.16 µM
[30] = second compound 0.03 µM, first compound 10 µM
[31] = second compound 0.0949 µM, first compound 0.0316 µM
[32] = second compound 0.0949 µM, first compound 0.1 µM
[33] = second compound 0.0949 µM, first compound 0.316 µM
[34] = second compound 0.0949 µM, first compound 1 µM
[35] = second compound 0.0949 µM, first compound 3.16 µM
[36] = second compound 0.0949 µM, first compound 10 µM
[37] = second compound 0.3 µM, first compound 0.0316 µM
[38] = second compound 0.3 µM, first compound 0.1 µM
[39] = second compound 0.3 µM, first compound 0.316 µM
[40] = second compound 0.3 µM, first compound 1 µM
[41] = second compound 0.3 µM, first compound 3.16 µM
[42] = second compound 0.3 µM, first compound 10 µM

IC50 [1]: > 10000 nM
IC50 [2]: > 10000 nM
IC50 [3]: > 10000 nM
IC50 [4]: > 10000 nM
IC50 [5]: > 10000 nM
IC50 [6]: > 10000 nM
SMILES: Cc1nc(N2CCC3(CC2)COC(C)C3N)c(CO)nc1Sc1ccnc(N)c1Cl (stereo unspecified) + CCn1c(-c2cccnc2C(C)OC)c2c3cc(ccc31)N1CCOC(CC(NC(=O)C(C(C)C)N(C)C(=O)C3(F)CCN(C(=O)C#CC(C)(C)N(C)C)CC3)C(=O)N3CCCC(N3)C(=O)OCC(C)(C)C2)C1
viability, T/C [7]: 108%
viability, T/C [8]: 99.1%
viability, T/C [9]: 102%
viability, T/C [10]: 102%
viability, T/C [11]: 102%
viability, T/C [12]: 97.8%
viability, T/C [13]: 103%
viability, T/C [14]: 105%
viability, T/C [15]: 102%
viability, T/C [16]: 101%
viability, T/C [17]: 103%
viability, T/C [18]: 99.5%
viability, T/C [19]: 102%
viability, T/C [20]: 101%
viability, T/C [21]: 108%
viability, T/C [22]: 100%
viability, T/C [23]: 104%
viability, T/C [24]: 102%
viability, T/C [25]: 99.4%
viability, T/C [26]: 103%
viability, T/C [27]: 103%
viability, T/C [28]: 99.8%
viability, T/C [29]: 106%
viability, T/C [30]: 104%
viability, T/C [31]: 104%
viability, T/C [32]: 97.1%
viability, T/C [33]: 98.2%
viability, T/C [34]: 101%
viability, T/C [35]: 98.2%
viability, T/C [36]: 95.7%
viability, T/C [37]: 102%
viability, T/C [38]: 103%
viability, T/C [39]: 101%
viability, T/C [40]: 99.7%
viability, T/C [41]: 98.2%
viability, T/C [42]: 95.5%

IC50 [1]: 1430 nM
IC50 [2]: 1620 nM
IC50 [3]: 738 nM
IC50 [4]: < 31.6 nM
IC50 [5]: < 31.6 nM
IC50 [6]: < 31.6 nM
SMILES: CCC(CC)c1cc(NC2CCC(N)C2)n2nccc2n1 (stereo unspecified) + CCn1c(-c2cc(N3CCN(C)CC3)cnc2C(C)OC)c2c3cc(ccc31)-c1csc(n1)CC(NC(=O)C1CC1C)C(=O)N1CCCC(N1)C(=O)OCC(C)(C)C2
viability, T/C [7]: 104%
viability, T/C [8]: 94.4%
viability, T/C [9]: 101%
viability, T/C [10]: 72.3%
viability, T/C [11]: 0.36%
viability, T/C [12]: 0.25%
viability, T/C [13]: 96.1%
viability, T/C [14]: 93.5%
viability, T/C [15]: 102%
viability, T/C [16]: 85.8%
viability, T/C [17]: 0.43%
viability, T/C [18]: 0.14%
viability, T/C [19]: 114%
viability, T/C [20]: 117%
viability, T/C [21]: 115%
viability, T/C [22]: 26.6%
viability, T/C [23]: 0.16%
viability, T/C [24]: 0.13%
viability, T/C [25]: 36.7%
viability, T/C [26]: 34.9%
viability, T/C [27]: 49.8%
viability, T/C [28]: 2.49%
viability, T/C [29]: 0.12%
viability, T/C [30]: 0.1%
viability, T/C [31]: 6.21%
viability, T/C [32]: 6.5%
viability, T/C [33]: 6.35%
viability, T/C [34]: 0.97%
viability, T/C [35]: 0.11%
viability, T/C [36]: 0.09%
viability, T/C [37]: 4.59%
viability, T/C [38]: 3.76%
viability, T/C [39]: 2.94%
viability, T/C [40]: 1.37%
viability, T/C [41]: 0.14%
viability, T/C [42]: 0.12%

IC50 (curve of compound): > 1000 nM and 672 nM and 724 nM
SMILES: O=C(c1ccc(F)c(F)c1Nc1ccc(I)cc1F)N1CC(O)([C@@H]2CCCCN2)C1
viability, T/C (compound 0.00316 µM): 105% [middle of 4 runs]
viability, T/C (compound 0.01 µM): 95.4% [middle of 4 runs]
viability, T/C (compound 0.1 µM): 96.1% [middle of 4 runs]
viability, T/C (compound 0.316 µM): 115% [middle of 4 runs]

IC50 (curve of first compound, second compound 0.0316 µM): > 1000 nM
IC50 (curve of first compound, second compound 0.1 µM): > 1000 nM
IC50 (curve of first compound, second compound 0.316 µM): > 1000 nM
IC50 (curve of first compound, second compound 1 µM): > 1000 nM
IC50 (curve of first compound, second compound 3.16 µM): 822 nM
IC50 (curve of first compound, second compound 10 µM): 614 nM
SMILES: O=C(c1ccc(F)c(F)c1Nc1ccc(I)cc1F)N1CC(O)([C@@H]2CCCCN2)C1 + C#Cc1c(F)ccc2cc(O)cc(-c3ncc4c(N5CC6CCC(C5)N6)nc(OCC56CCCN5CC(F)C6)nc4c3F)c12
viability, T/C (second compound 0.0316 µM, first compound 0.00316 µM): 83.7%
viability, T/C (second compound 0.0316 µM, first compound 0.01 µM): 91.4%
viability, T/C (second compound 0.0316 µM, first compound 0.0316 µM): 84.5%
viability, T/C (second compound 0.0316 µM, first compound 0.1 µM): 91.7%
viability, T/C (second compound 0.0316 µM, first compound 0.316 µM): 113%
viability, T/C (second compound 0.0316 µM, first compound 1 µM): 60.2%
viability, T/C (second compound 0.1 µM, first compound 0.00316 µM): 96.5%
viability, T/C (second compound 0.1 µM, first compound 0.01 µM): 91.3%
viability, T/C (second compound 0.1 µM, first compound 0.0316 µM): 84.4%
viability, T/C (second compound 0.1 µM, first compound 0.1 µM): 98.7%
viability, T/C (second compound 0.1 µM, first compound 0.316 µM): 114%
viability, T/C (second compound 0.1 µM, first compound 1 µM): 60%
viability, T/C (second compound 0.316 µM, first compound 0.00316 µM): 95%
viability, T/C (second compound 0.316 µM, first compound 0.01 µM): 91%
viability, T/C (second compound 0.316 µM, first compound 0.0316 µM): 82.3%
viability, T/C (second compound 0.316 µM, first compound 0.1 µM): 95%
viability, T/C (second compound 0.316 µM, first compound 0.316 µM): 115%
viability, T/C (second compound 0.316 µM, first compound 1 µM): 54%
viability, T/C (second compound 1 µM, first compound 0.00316 µM): 90.8%
viability, T/C (second compound 1 µM, first compound 0.01 µM): 92.7%
viability, T/C (second compound 1 µM, first compound 0.0316 µM): 85.4%
viability, T/C (second compound 1 µM, first compound 0.1 µM): 93.5%
viability, T/C (second compound 1 µM, first compound 0.316 µM): 116%
viability, T/C (second compound 1 µM, first compound 1 µM): 50.6%
viability, T/C (second compound 3.16 µM, first compound 0.00316 µM): 90.2%
viability, T/C (second compound 3.16 µM, first compound 0.01 µM): 91.2%
viability, T/C (second compound 3.16 µM, first compound 0.0316 µM): 81%
viability, T/C (second compound 3.16 µM, first compound 0.1 µM): 94.5%
viability, T/C (second compound 3.16 µM, first compound 0.316 µM): 118%
viability, T/C (second compound 3.16 µM, first compound 1 µM): 40.7%
viability, T/C (second compound 10 µM, first compound 0.00316 µM): 94%
viability, T/C (second compound 10 µM, first compound 0.01 µM): 94.1%
viability, T/C (second compound 10 µM, first compound 0.0316 µM): 90.2%
viability, T/C (second compound 10 µM, first compound 0.1 µM): 95.4%
viability, T/C (second compound 10 µM, first compound 0.316 µM): 115%
viability, T/C (second compound 10 µM, first compound 1 µM): 14.8%
